Experimental data from ChEMBL document CHEMBL4346765, “Design, synthesis and biological evaluation of novel dithiocarbamate-substituted diphenylaminopyrimidine derivatives as BTK inhibitors” (Bioorg Med Chem, 2019).
pIC50: −log10 of the molar value.

Experiments:
[1] = tested on: Raji; assay: Antiproliferative activity against human Raji cells assessed as reduction in cell growth incubated for 48 hrs by MTS assay
[2] = tested on: Ramos; assay: Antiproliferative activity against human Ramos cells assessed as reduction in cell growth incubated for 48 hrs by MTS assay
[3] = biological target: Tyrosine-protein kinase BTK (Homo sapiens, UniProt Q06187); assay: Inhibition of human recombinant full length BTK expressed in baculovirus in Sf9 insect cells using Poly (4:1 Glu, Tyr) as substrate incubated for 1 hr by ADP-Glo assay
Chain of Tyrosine-protein kinase BTK (Q06187 whole entry): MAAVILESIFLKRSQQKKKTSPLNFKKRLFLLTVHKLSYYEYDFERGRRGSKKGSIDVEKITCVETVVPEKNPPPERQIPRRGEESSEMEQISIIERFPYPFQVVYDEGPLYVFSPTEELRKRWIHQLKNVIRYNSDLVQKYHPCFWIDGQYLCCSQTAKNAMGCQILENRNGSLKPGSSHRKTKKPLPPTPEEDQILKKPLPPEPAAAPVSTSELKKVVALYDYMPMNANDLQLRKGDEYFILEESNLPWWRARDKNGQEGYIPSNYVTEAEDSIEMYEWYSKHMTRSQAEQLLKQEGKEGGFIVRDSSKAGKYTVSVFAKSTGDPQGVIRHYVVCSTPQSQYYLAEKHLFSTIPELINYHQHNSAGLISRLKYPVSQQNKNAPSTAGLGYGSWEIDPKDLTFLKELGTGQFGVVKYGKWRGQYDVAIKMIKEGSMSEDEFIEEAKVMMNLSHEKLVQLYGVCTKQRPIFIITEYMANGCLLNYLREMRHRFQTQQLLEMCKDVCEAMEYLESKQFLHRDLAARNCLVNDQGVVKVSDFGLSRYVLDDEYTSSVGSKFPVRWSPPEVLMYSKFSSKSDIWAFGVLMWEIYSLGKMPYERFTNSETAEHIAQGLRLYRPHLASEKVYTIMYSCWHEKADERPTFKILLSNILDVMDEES

Row | SMILES | pIC50 [1] | pIC50 [2] | pIC50 [3]
1 | C=CC(=O)Nc1cccc(Nc2nc(Nc3ccc(OCCCSC(=S)N4CCN(C(C)C)CC4)cc3)ncc2F)c1 | 5.08 | 5.87 | 7.20
2 | C=CC(=O)N1CCC[C@@H](n2nc(-c3ccc(Oc4ccccc4)cc3)c3c(N)ncnc32)C1 [IBRUTINIB] | 4.75 | 5.73 | 
3 | C=CC(=O)Nc1cccc(Nc2nc(Nc3ccc(OCCSC(=S)NCC)cc3)ncc2F)c1 | 5.06 | 5.46 | 7.82
4 | C=CC(=O)Nc1cccc(Nc2nc(Nc3ccc(OCCSC(=S)N4CCCCC4)cc3)ncc2F)c1 | 4.87 | 5.12 | 7.08
5 | C=CC(=O)Nc1cccc(Nc2nc(Nc3ccc(OCCSC(=S)NCc4cnccn4)cc3)ncc2F)c1 | 5.18 | 5.35 | 8.07
6 | C=CC(=O)Nc1cccc(Nc2nc(Nc3ccc(OCCSC(=S)N4CCN(Cc5ccccc5)CC4)cc3)ncc2F)c1 | < 4.40 | 5.68 | 6.55
7 | C=CC(=O)Nc1cccc(Nc2nc(Nc3ccc(OCCSC(=S)NC)cc3)ncc2F)c1 | 5.14 | 5.23 | 8.09
8 | C=CC(=O)Nc1cccc(Nc2nc(Nc3ccc(OCCSC(=S)N4CCN(CCO)CC4)cc3)ncc2F)c1 | 5.11 | 5.43 | 7.17
9 | C=CC(=O)Nc1cccc(Nc2nc(Nc3ccc(OCCSC(=S)N(CC)CC)cc3)ncc2F)c1 | 4.86 | 5.45 | 7.63
10 | C=CC(=O)Nc1cccc(Nc2nc(Nc3ccc(OCCSC(=S)NC4CCCCC4)cc3)ncc2F)c1 | 5.01 | 5.02 | 6.94
11 | C=CC(=O)Nc1cccc(Nc2nc(Nc3ccc(OCCSC(=S)N(CCCC)CCCC)cc3)ncc2F)c1 | 4.68 | 5.04 | 6.90
12 | C=CC(=O)Nc1cccc(Nc2nc(Nc3ccc(OCCSC(=S)N4CCN(c5ccccc5)CC4)cc3)ncc2F)c1 | 4.82 | 4.69 | 6.41
13 | C=CC(=O)Nc1cccc(Nc2nc(Nc3ccc(OCCSC(=S)N4CCN(C(=O)OC(C)(C)C)CC4)cc3)ncc2F)c1 | < 4.40 | 4.84 | 6.58
14 | C=CC(=O)Nc1cccc(Nc2nc(Nc3ccc(OCCSC(=S)N(C)C)cc3)ncc2F)c1 | 4.86 | 5.02 | 8.84
15 | C=CC(=O)Nc1cccc(Nc2nc(Nc3ccc(OCCCCSC(=S)N(C)C)cc3)ncc2F)c1 | 4.99 | 4.81 | 7.45
16 | C=CC(=O)Nc1cccc(Nc2nc(Nc3ccc(OCCSC(=S)N4CCCC4)cc3)ncc2F)c1 | 4.82 | 5.53 | 6.81
17 | C=CCNC(=S)SCCOc1ccc(Nc2ncc(F)c(Nc3cccc(NC(=O)C=C)c3)n2)cc1 | 4.88 | 5.36 | 7.04
18 | C=CC(=O)Nc1cccc(Nc2nc(Nc3ccc(OCCSC(=S)N4CCc5ccccc5C4)cc3)ncc2F)c1 | < 4.40 | < 4.40 | < 6.30
19 | C=CC(=O)Nc1cccc(Nc2nc(Nc3ccc(OCCSC(=S)NC(C)C)cc3)ncc2F)c1 | 5.02 | 5.03 | 7.01
20 | C=CC(=O)Nc1cccc(Nc2nc(Nc3ccc(OCCSC(=S)N(CCC)CCC)cc3)ncc2F)c1 | < 4.40 | < 4.40 | 6.62
21 | C=CC(=O)Nc1cccc(Nc2nc(Nc3ccc(OCCSC(=S)NCc4ccccn4)cc3)ncc2F)c1 | 4.99 | 5.57 | 7.73
22 | C=CC(=O)Nc1cccc(Nc2nc(Nc3ccc(OCCSC(=S)NC4CC4)cc3)ncc2F)c1 | 5.20 | 5.29 | 8.60

Now from value to molecule:

Row | pIC50 [1] | pIC50 [2] | pIC50 [3] | SMILES
23 | 5.30 | 5.36 | 7.86 | C=CC(=O)Nc1cccc(Nc2nc(Nc3ccc(OCCCSC(=S)N(C)C)cc3)ncc2F)c1
24 | 6.30 | 6.24 | 8.13 | C=CC(=O)Nc1cccc(Nc2nc(Nc3ccc(OCCSC(=S)NCc4ccncc4)cc3)ncc2F)c1
25 | 5.37 | 5.54 | 7.52 | C=CC(=O)Nc1cccc(Nc2nc(Nc3ccc(OCCSC(=S)N4CCOCC4)cc3)ncc2F)c1
26 | 5.91 | 5.99 | 8.07 | C=CC(=O)Nc1cccc(Nc2nc(Nc3ccc(OCCSC(=S)NCc4ccc(C#N)cc4)cc3)ncc2F)c1
27 | 6.25 | 5.65 | 7.31 | C=CC(=O)Nc1cccc(Nc2nc(Nc3ccc(OCCSC(=S)NCc4cc(OC)c(OC)c(OC)c4)cc3)ncc2F)c1
28 | 5.94 | 5.91 | 8.16 | C=CC(=O)Nc1cccc(Nc2nc(Nc3ccc(OCCSC(=S)NCc4cccc(F)c4)cc3)ncc2F)c1
29 | 5.89 | 5.49 | 8.25 | C=CC(=O)Nc1cccc(Nc2nc(Nc3ccc(OCCSC(=S)NCc4ccc(OC)cc4)cc3)ncc2F)c1
30 | 5.41 | 5.72 | 7.45 | C=CC(=O)Nc1cccc(Nc2nc(Nc3ccc(OCCSC(=S)N4CCN(C)CC4)cc3)ncc2F)c1
31 | 5.21 | 5.64 | 7.57 | C=CC(=O)Nc1cccc(Nc2nc(Nc3ccc(OCCSC(=S)N4CC(C)OC(C)C4)cc3)ncc2F)c1 (centres undefined)
32 | 5.41 | 5.99 | 7.24 | C=CC(=O)Nc1cccc(Nc2nc(Nc3ccc(OCCSC(=S)N4CCN(C(C)C)CC4)cc3)ncc2F)c1
33 | 5.35 | 5.53 | 6.88 | C=CC(=O)Nc1cccc(Nc2nc(Nc3ccc(OCCCCSC(=S)N4CCN(C(C)C)CC4)cc3)ncc2F)c1
34 | 5.45 | 5.56 | 7.10 | C=CC(=O)Nc1cccc(Nc2nc(Nc3ccc(OCCSC(=S)N4CCN(C(C)=O)CC4)cc3)ncc2F)c1
35 | 5.99 | 5.85 | 8.62 | C=CC(=O)Nc1cccc(Nc2nc(Nc3ccc(OCCCSC(=S)NCc4cccnc4)cc3)ncc2F)c1
36 | 6.51 | 5.95 | 7.74 | C=CC(=O)Nc1cccc(Nc2nc(Nc3ccc(NC(=O)CSC(=S)NCc4cccnc4)cc3)ncc2F)c1
37 | 5.32 | 5.56 | 7.51 | C=CC(=O)Nc1cccc(Nc2nc(Nc3ccc(OCCSC(=S)N(C)Cc4cccnc4)cc3)ncc2F)c1
38 | 6.47 | 5.91 | 7.63 | C=CC(=O)Nc1cccc(Nc2nc(Nc3ccc(NC(=O)CCSC(=S)NCc4cccnc4)cc3)ncc2F)c1
39 | 5.65 | 5.86 | 7.97 | C=CC(=O)Nc1cccc(Nc2nc(Nc3ccc(OCCSC(=S)NCc4ccccc4)cc3)ncc2F)c1
40 | 5.98 | 5.83 | 7.78 | C=CC(=O)Nc1cccc(Nc2nc(Nc3ccc(OCCCCSC(=S)NCc4cccnc4)cc3)ncc2F)c1
